Experimental data published in article PMC11968506, “Toxicokinetics and analytical toxicology of the phenmetrazine-derived new psychoactive substance 3,4-methylenedioxyphenmetrazine studied by means of in vitro systems” (Archives of Toxicology, 2025).

Tests used:
CYP3A4 = CYP3A4 (Homo sapiens, UniProt P08684); experiment: CYP inhibition cocktail assay in pHLM, CYP3A4 (testosterone)
Protocol: A modified dual-cocktail based method (Dinger et al. [2014b]) was used. Substrate cocktail A consisted of 8.9 µM dextromethorphan (CYP2D6), 86 µM testosterone (CYP3A4), 3.5 µM diclofenac (CYP2C9), and 12 µM phenacetin (CYP1A2). Substrate cocktail B included 30 µM bupropion (CYP2B6), 2 µM amodiaquine (CYP2C8) and 21 µM omeprazole (CYP2C19). Substrate concentrations were near their respective Michaelis–Menten constant (Km) values (Dinger et al. [2014a]) and all concentrations are final. Enzyme inhibition was investigated using a positive control, a test group, a control group, an interference group, and a negative control. In the test group, specific inhibitors were replaced by MDPM (20 µM). Instead of inhibitors, phosphate buffer was used in the control group. Enzymes were replaced with phosphate buffer in the negative control group. The interference group was incubated like the control group, but the reaction was stopped with 20 µM MDPM in acetonitrile, also containing 2.5 µM trimipramine-d3. All groups were incubated with a NADPH-regenerating system, consisting of 5 mM isocitrate, 2 U/mL isocitrate dehydrogenase, 5 mM Mg^2+, and 1.2 mM NADP^+. Further, substrate cocktail A or B, 90 mM phosphate buffer (pH 7.4), and 200 U/mL superoxide dismutase were added to each group. […] All groups were preincubated for 10 min at 37 °C. […] Enzyme inhibition was evaluated by metabolite formation. […]

CYP2C9 = CYP2C9 (Homo sapiens, UniProt P11712); experiment: CYP inhibition cocktail assay in pHLM, CYP2C9 (diclofenac); details: inhibitor 20 µM
Protocol: (§1) A modified dual-cocktail based method (Dinger et al. [2014b]) was used. Substrate cocktail A consisted of 8.9 µM dextromethorphan (CYP2D6), 86 µM testosterone (CYP3A4), 3.5 µM diclofenac (CYP2C9), and 12 µM phenacetin (CYP1A2). Substrate cocktail B included 30 µM bupropion (CYP2B6), 2 µM amodiaquine (CYP2C8) and 21 µM omeprazole (CYP2C19). Substrate concentrations were near their respective Michaelis–Menten constant (Km) values (Dinger et al. [2014a]) and all concentrations are final. Enzyme inhibition was investigated using a positive control, a test group, a control group, an interference group, and a negative control. In the test group, specific inhibitors were replaced by MDPM (20 µM). Instead of inhibitors, phosphate buffer was used in the control group. Enzymes were replaced with phosphate buffer in the negative control group. The interference group was incubated like the control group, but the reaction was stopped with 20 µM MDPM in acetonitrile, also containing 2.5 µM trimipramine-d3. All groups were incubated with a NADPH-regenerating system, consisting of 5 mM isocitrate, 2 U/mL isocitrate dehydrogenase, 5 mM Mg^2+, and 1.2 mM NADP^+. Further, substrate cocktail A or B, 90 mM phosphate buffer (pH 7.4), and 200 U/mL superoxide dismutase were added to each group. […] All groups were preincubated for 10 min at 37 °C. Then, pHLM (0.4 mg microsomal protein/mL) was added to each group except the negative control. Incubations were done for 15 min at 37 °C. Therefore, 50 µL of acetonitrile (− 20 °C) containing 2.5 µM trimipramine-d3 as internal standard was added. Incubations were done in triplicates and organic solvent in the incubation mixture was below 1% (Chauret et al. [1998]). Afterwards the samples were vortexed and centrifuged for 2 min at 18,407×g. 70 µL of the supernatant were transferred to autosampler vials and 10 µL were injected onto the LC-HRMS/MS system. Enzyme inhibition was evaluated by metabolite formation. […] The following settings were used: unpaired; one-tailed; significance level, 0.05; confidence intervals, 99%.

CYP2C8 = target: T1, CYP2C8 (Homo sapiens, UniProt P10632); experiment: CYP inhibition cocktail assay in pHLM, CYP2C8 (amodiaquine); details: inhibitor 20 µM
T1 sequence (P10632 1-490): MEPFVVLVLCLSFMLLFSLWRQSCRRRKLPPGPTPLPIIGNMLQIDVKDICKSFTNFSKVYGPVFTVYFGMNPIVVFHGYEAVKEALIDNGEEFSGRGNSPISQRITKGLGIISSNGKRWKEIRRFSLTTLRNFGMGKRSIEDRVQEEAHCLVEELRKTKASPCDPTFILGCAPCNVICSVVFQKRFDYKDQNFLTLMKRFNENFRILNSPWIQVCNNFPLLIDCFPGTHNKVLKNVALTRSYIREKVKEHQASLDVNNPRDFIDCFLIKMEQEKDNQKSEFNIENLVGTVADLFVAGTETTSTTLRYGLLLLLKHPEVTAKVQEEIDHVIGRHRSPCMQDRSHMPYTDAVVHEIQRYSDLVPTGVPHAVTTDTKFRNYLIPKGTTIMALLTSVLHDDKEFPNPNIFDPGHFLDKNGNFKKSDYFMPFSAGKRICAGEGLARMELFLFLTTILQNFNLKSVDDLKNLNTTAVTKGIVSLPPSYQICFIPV
Protocol: as §1

Chain of CYP3A4 (P08684 whole entry): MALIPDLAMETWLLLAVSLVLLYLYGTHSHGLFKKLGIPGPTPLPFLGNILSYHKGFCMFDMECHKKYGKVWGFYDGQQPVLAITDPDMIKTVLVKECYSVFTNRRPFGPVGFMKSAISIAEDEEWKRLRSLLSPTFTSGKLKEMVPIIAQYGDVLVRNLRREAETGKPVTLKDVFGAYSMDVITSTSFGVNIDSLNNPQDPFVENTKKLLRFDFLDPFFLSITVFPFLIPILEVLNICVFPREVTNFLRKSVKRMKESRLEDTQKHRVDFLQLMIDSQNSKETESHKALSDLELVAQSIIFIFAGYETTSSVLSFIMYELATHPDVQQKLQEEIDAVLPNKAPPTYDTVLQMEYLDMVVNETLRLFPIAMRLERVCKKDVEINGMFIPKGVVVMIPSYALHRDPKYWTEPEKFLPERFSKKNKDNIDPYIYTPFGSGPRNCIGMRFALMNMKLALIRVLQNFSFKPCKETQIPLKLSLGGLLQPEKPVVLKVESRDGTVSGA
Chain of CYP2C9 (P11712 whole entry): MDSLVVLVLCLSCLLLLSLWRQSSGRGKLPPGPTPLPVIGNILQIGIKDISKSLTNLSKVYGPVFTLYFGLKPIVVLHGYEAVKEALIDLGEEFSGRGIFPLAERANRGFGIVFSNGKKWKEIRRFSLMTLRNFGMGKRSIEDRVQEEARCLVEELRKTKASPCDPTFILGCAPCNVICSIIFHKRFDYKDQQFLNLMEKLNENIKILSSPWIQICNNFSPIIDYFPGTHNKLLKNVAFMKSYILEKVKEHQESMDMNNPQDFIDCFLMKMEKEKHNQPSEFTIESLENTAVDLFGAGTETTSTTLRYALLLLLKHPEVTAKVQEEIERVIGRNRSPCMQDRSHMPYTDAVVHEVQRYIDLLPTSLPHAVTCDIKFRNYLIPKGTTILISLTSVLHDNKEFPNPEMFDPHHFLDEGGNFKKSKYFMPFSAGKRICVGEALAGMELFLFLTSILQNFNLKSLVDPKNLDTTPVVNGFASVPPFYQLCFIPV

## CC1NCCOC1c1ccc2c(c1)OCO2 (stereo not drawn) [MDPM, 2-(1,3-benzodioxol-5-yl)-3-methylmorpholine]
CYP3A4; human, pH 7.4
  inhibition at 15 min, 20 µM: 28%
CYP3A4; inhibitor 20 µM, testosterone 86 µM, pHLM 0.4 mg/mL, 15 min, control without inhibitor = 100%
  CYP3A4 metabolite formation: 72%
CYP2C9; diclofenac 3.5 µM, pHLM 0.4 mg/mL, 15 min, control without inhibitor = 100%
  CYP2C9 metabolite formation: 115%
CYP2C9; diclofenac, pHLM, t-test versus control
  inhibition of CYP2C9: no significant inhibition
CYP2C8; amodiaquine 2 µM, pHLM 0.4 mg/mL, 15 min, control without inhibitor = 100%
  CYP2C8 metabolite formation: 105%
CYP2C8; amodiaquine, pHLM, t-test versus control
  inhibition of CYP2C8: no significant inhibition
